Experiment [1] addresses GSK 3α (Homo sapiens (Human), UniProt P49840). The experiment in a line: GSK 3α enzyme inhibition (Z-LYTE FRET). The format is biochemical. The note with it: read-out: IC50 Values for Enzyme Inhibition GSK3α. Here is the method: (§1) The enzyme inhibitory activities of compounds disclosed herein are determined by FRET using synthetic peptides labelled with both donor and acceptor fluorophores (Z-LYTE, Invitrogen Ltd., Paisley, UK).
The following two assay variants can be used for determination of GSK 3α inhibition.
The inhibitory activities of compounds of the invention against the GSK 3α enzyme isoform (Invitrogen), are evaluated by determining the level of activation/phosphorylation of the target peptide. The GSK3-α protein (500 ng/mL, 2.5 μL) is mixed with the test compound (2.5 μL at either 4 μg/mL, 0.4 μg/mL, 0.04 μg/mL, or 0.004 μg/mL) for 2 hr at RT. The FRET peptide (8 μM, 2.5 μL), which is a phosphorylation target for GSK3α, and ATP (40 μM, 2.5 μL) are then added to the enzyme/compound mixture and the resulting mixture incubated for 1 hr. Development reagent (protease, 5 μL) is added for 1 hr prior to detection in a fluorescence microplate reader (Varioskan® Flash, ThermoFisher Scientific).
(§2) In all cases, the site-specific protease cleaves non-phosphorylated peptide only and eliminates the FRET signal. Phosphorylation levels of each reaction are calculated using the ratio of coumarin emission (donor) over fluorescein emission (acceptor), for which high ratios indicate high phosphorylation and low ratios indicate low phosphorylation levels. The percentage inhibition of each reaction is calculated relative to non-inhibited control and the 50% inhibitory concentration (IC50 value) is then calculated from the concentration-response curve.
This method follows the same steps as Method 1 above, but utilises a shorter period of mixing of the test compound (105 minutes instead of 2 hours) with the GSK3-α protein.

Experiment [2] relates to PBMCs. Briefly: LPS-induced TNFα/IL-8 release in PBMC cells. The class given is cell-based. The note with it: Homo sapiens, LPS-stimulated PBMCs, IL-8, read-out: IC50 Values for Inhibition of Cytokine Release PBMCs IL-8. Here is the method: Peripheral blood mononuclear cells (PBMCs) from healthy subjects are separated from whole blood using a density gradient (Lymphoprep, Axis-Shield Healthcare). The PBMCs are seeded in 96 well plates and treated with compounds at the desired concentration for 2 hours before addition of 1 ng/mL LPS (Escherichia Coli 0111:B4 from Sigma Aldrich) for 24 hours under normal tissue culture conditions (37° C., 5% CO2). The supernatant is harvested for determination of IL-8 and TNFα concentrations by sandwich ELISA (Duo-set, R&D systems) and read on the fluorescence microplate reader (Varioskan® Flash, ThermoFisher Scientific). The concentration at 50% inhibition (IC50) of IL-8 and TNFα production is calculated from the dose response curve.

The target in experiment [3] is c-Src (Homo sapiens (Human), UniProt P12931). The experiment in a line: c-Src enzyme inhibition (Z-LYTE FRET). The class given is biochemical. As for the experimental part: as §1
(§3) The inhibitory activities of compounds of the invention against c-Src and Syk enzymes (Invitrogen), are evaluated in a similar fashion to that described hereinabove. The relevant enzyme (3000 ng/mL or 2000 ng/mL respectively, 2.5 μL) is incubated with the test compound (either 4 μg/mL, 0.4 μg/mL, 0.04 μg/mL, or 0.004 μg/mL, 2.5 μL each) for 2 hr at RT. The FRET peptides (8 μM, 2.5 μL), and appropriate ATP solutions (2.5 μL, 800 μM for c-Src, and 60 μM ATP for Syk) are then added to the enzymes/compound mixtures and incubated for 1 hr. Development reagent (protease, 5 μL) is added for 1 hr prior to detection in a fluorescence microplate reader (Varioskan® Flash, ThermoFisher Scientific).
as §2

The target in experiment [4] is Syk (Homo sapiens (Human), UniProt P43405). The experiment in a line: Syk enzyme inhibition (Z-LYTE FRET). The class given is biochemical. As for the experimental part: as §1, §3, §2
Experiment [5] addresses p38 MAPKα isoform (MAPK14) (Homo sapiens (Human), UniProt Q16539). The experiment in a line: p38 MAPKα enzyme inhibition (Z-LYTE FRET). The class given is biochemical. As for the experimental part: as §1
The following two assay variants can be used for determination of p38 MAPKα inhibition.
The inhibitory activities of test compounds against the p38 MAPKα isoform (MAPK14: Invitrogen), are evaluated indirectly by determining the level of activation/phosphorylation of the down-stream molecule, MAPKAP-K2. The p38 MAPKα protein (80 ng/mL, 2.5 μL) is mixed with the test compound (2.5 μL of either 4 μg/mL, 0.4 μg/mL, 0.04 μg/mL or 0.004 μg/mL) for 2 hr at RT. […] The mixture is incubated for 1 hr at RT. Development reagent (protease, 5 μL) is added for 1 hr prior to detection in a fluorescence microplate reader (Varioskan® Flash, ThermoFisher Scientific).
This method follows the same steps as Method 1 above, but utilises a higher concentration of the p38 MAPKα protein (2.5 μL of 200 ng/mL protein instead of 2.5 μL of 80 ng/mL protein) for mixing with the test compound.
as §2

Experiment [6] concerns PBMCs. Briefly: IL-2 and IFN gamma release in CD3/CD28 stimulated PBMC cells. The class given is cell-based. The note with it: Homo sapiens, IL-2, read-out: IC50 Values for Inhibition of Cytokine Release PBMCs IL-2. As for the experimental part: PBMCs from healthy subjects are separated from whole blood using a density gradient (Lymphoprep, Axis-Shield Healthcare). Cells are added to a 96 well plate pre-coated with a mixture of CD3/CD38 monoclonal antibodies (0.3 μg/mL eBioscience and 3 μg/mL BD Pharmingen respectively). Compound at the desired concentration is then added to the wells and the plate left for 3 days under normal tissue culture conditions. Supernatants are harvested and IL-2 and IFN gamma release determined by Sandwich ELISA (Duo-set, R&D System). The IC50 is determined from the dose response curve.

Experiment [7] has as its system HT29 cells. Briefly: IL-1β-induced IL-8 release in HT29 cells. The class given is cell-based. The note with it: Homo sapiens, HT-29, IL-1β-stimulated HT29 cells, read-out: IC50 Values for Inhibition of Cytokine Release HT29 cells IL-8. As for the experimental part:
HT29 cells, a human colon adenocarcinoma cell line, are plated in a 96 well plate (24 hrs) and pre-treated with compounds at the desired concentration for 2 hours before addition of 5 ng/mL of IL-1β (Abcam) for 24 hours. Supernatants are harvested for IL-8 quantification by Sandwich ELISA (Duo-set, R&D System). The IC50 is determined from the dose response curve.

c-Src, sequence (P12931 whole entry, looked up): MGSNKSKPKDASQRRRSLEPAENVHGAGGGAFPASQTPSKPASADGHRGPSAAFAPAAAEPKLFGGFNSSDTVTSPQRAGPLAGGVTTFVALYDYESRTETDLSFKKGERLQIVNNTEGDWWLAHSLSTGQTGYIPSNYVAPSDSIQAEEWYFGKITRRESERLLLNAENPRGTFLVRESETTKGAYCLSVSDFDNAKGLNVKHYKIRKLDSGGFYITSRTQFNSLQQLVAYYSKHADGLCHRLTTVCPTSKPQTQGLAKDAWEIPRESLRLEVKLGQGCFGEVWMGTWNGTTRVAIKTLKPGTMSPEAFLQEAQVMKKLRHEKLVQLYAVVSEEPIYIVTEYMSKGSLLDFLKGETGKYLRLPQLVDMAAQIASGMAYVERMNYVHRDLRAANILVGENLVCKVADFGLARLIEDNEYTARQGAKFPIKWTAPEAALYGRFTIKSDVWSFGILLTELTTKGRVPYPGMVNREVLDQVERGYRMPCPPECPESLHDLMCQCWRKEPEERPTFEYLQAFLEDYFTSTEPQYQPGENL
GSK 3α, sequence (P49840 whole entry): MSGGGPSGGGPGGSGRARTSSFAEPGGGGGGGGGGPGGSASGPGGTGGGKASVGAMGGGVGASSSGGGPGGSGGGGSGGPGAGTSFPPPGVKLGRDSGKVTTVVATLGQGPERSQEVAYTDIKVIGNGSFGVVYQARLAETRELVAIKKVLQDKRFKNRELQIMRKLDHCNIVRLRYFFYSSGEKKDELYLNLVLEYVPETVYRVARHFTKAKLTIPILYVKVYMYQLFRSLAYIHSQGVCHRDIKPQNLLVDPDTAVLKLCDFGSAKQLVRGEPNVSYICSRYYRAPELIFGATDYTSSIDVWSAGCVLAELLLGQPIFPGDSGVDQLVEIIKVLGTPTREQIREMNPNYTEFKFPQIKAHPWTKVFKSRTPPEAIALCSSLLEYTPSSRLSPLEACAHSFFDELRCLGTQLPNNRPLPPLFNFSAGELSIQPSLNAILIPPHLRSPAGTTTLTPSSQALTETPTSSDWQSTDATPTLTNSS
p38 MAPKα isoform (MAPK14), sequence (Q16539 whole entry, canonical isoform): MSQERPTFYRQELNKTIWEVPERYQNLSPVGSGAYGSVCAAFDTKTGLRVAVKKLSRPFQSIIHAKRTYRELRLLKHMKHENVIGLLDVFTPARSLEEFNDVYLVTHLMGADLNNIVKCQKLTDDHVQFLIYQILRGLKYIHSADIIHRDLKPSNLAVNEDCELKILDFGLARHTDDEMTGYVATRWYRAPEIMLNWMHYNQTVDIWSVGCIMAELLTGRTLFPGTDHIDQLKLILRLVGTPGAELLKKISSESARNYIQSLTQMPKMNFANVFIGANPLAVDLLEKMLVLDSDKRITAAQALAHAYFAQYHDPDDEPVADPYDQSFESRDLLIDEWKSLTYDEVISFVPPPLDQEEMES

With `Cc1ccc(-n2nc([Si](C)(C)C)cc2NC(=O)Nc2ccc(Oc3ccnc(Nc4cc(C)c5[nH]ncc5c4)n3)c(Cl)c2Cl)cc1` [Example 17, 1-(2,3-Dichloro-4-((2-((7-methyl-1H-indazol-5-yl)amino)pyrimidin-4-yl)oxy)phenyl)-3-(1-(p-tolyl)-3-(trimethylsilyl)-1H-pyrazol-5-yl)urea], the 50% inhibitory concentration (IC50) in experiment [1] was more than 10 µM; in experiment [2], 0.008 µM.

Regarding `CC[Si](C)(C)c1cc(NC(=O)Nc2ccc(Oc3ccnc(Nc4ccccc4)n3)c3ccccc23)n(-c2ccc(C)cc2)n1` [Example 16, 1-(3-(Ethyldimethylsilyl)-1-(p-tolyl)-1H-pyrazol-5-yl)-3-(4-((2-(phenylamino)pyrimidin-4-yl)oxy)naphthalen-1-yl)urea], the IC50 is 0.116 µM in experiment [3], more than 1 µM in experiment [4], more than 10 µM in experiment [1] and 0.0148 µM in experiment [2].

Consider `Cc1ccc(-n2nc([Si](C)(C)C)cc2NC(=O)Nc2ccc(Oc3ccnc(Nc4ccc5c(c4)CNC5=O)n3)c3ccccc23)cc1` [Example 20, 1-(4-((2-((1-Oxoisoindolin-5-yl)amino)pyrimidin-4-yl)oxy)naphthalen-1-yl)-3-(1-(p-tolyl)-3-(trimethylsilyl)-1H-pyrazol-5-yl)urea], for which the values for the IC50 in experiment [1] and in experiment [2] were 0.345 µM and 0.0018 µM, respectively.

Regarding `Cc1cc(Nc2nccc(Oc3ccc(NC(=O)Nc4cc([Si](C)(C)C)nn4-c4ccc(OCCN5CCOCC5)cc4)c4ccccc34)n2)cc2cn[nH]c12` [Example 15, 1-(4-((2-((7-Methyl-1H-indazol-5-yl)amino)pyrimidin-4-yl)oxy)naphthalen-1-yl)-3-(1-(4-(2-morpholinoethoxy)phenyl)-3-(trimethylsilyl)-1H-pyrazol-5-yl)urea], the concentration for half-maximal inhibition (IC50) in experiment [5] came out at 0.253 µM; in experiment [3] it was 0.015 µM; in experiment [4] it was 0.024 µM; in experiment [1] it was 3.49 µM; in experiment [2], 0.0022 µM; in experiment [6] it was 0.0307 µM. Also, the IC50 in experiment [7] amounted to 0.0065 µM.

Regarding `CC[Si](CC)(CC)c1cc(NC(=O)Nc2ccc(Oc3ccnc(Nc4ccccc4)n3)c3ccccc23)n(-c2ccc(C)cc2)n1` [Example 4, 1-(4-((2-(phenylamino)pyrimidin-4-yl)oxy)naphthalen-1-yl)-3-(1-(p-tolyl)-3-(triethylsilyl)-1H-pyrazol-5-yl)urea], the 50% inhibitory concentration (IC50) in experiment [1] was more than 10 µM; in experiment [2], 0.0959 µM.

In the case of `Cc1ccc(-n2nc([Si](C)(C)C(C)(C)C)cc2NC(=O)Nc2ccc(Oc3ccnc(Nc4ccccc4)n3)c3ccccc23)cc1` [Example 5, 1-(3-(tert-Butyldimethylsilyl)-1-(p-tolyl)-1H-pyrazol-5-yl)-3-(4-((2-(phenylamino)pyrimidin-4-yl)oxy)naphthalen-1-yl)urea], the values for the IC50 in experiment [1] and in experiment [2] were 5.01 µM and 0.113 µM, respectively.

Consider `Cc1ccc(-n2nc([Si](C)(C)C)cc2NC(=O)Nc2ccc(Oc3ccnc(Nc4ccccn4)n3)c3ccccc23)cc1` [Example 14, 1-(4-((2-(pyridin-2-ylamino)pyrimidin-4-yl)oxy)naphthalen-1-yl)-3-(1-(p-tolyl)-3-(trimethylsilyl)-1H-pyrazol-5-yl)urea], for which the IC50 in experiment [3] was 0.36 µM; in experiment [4] it was more than 1 µM; in experiment [1], more than 10 µM; in experiment [2] it was 0.0366 µM.

Consider `COc1cc(Nc2nccc(Oc3ccc(NC(=O)Nc4cc([Si](C)(C)C)nn4-c4ccc(C)cc4)c4ccccc34)n2)cc(C(=O)NCCN2CCOCC2)c1` [Example 12, 3-Methoxy-N-(2-morpholinoethyl)-5-((4-((4-(3-(1-(p-tolyl)-3-(trimethylsilyl)-1H-pyrazol-5-yl)ureido)naphthalen-1-yl)oxy)pyrimidin-2-yl)amino)benzamide], for which the 50% inhibitory concentration (IC50) in experiment [5] is 0.142 µM; in experiment [3] it was 0.01 µM; in experiment [4] it was 0.017 µM; in experiment [1] it was 1.92 µM; in experiment [2], 0.0009 µM; in experiment [6] it was 0.0282 µM.

For `Cc1ccc(-n2nc([Si](C)(C)C)cc2NC(=O)Nc2ccc(Oc3ccnc(Nc4ccc5onc(N)c5c4)n3)c3ccccc23)cc1` [Example 8, 1-(4-((2-((3-Aminobenzo[d]isoxazol-5-yl)amino)pyrimidin-4-yl)oxy)naphthalen-1-yl)-3-(1-(p-tolyl)-3-(trimethylsilyl)-1H-pyrazol-5-yl)urea], the half-inhibitory concentration (IC50) in experiment [5] is more than 1 µM; in experiment [3], 0.037 µM; in experiment [4], 0.269 µM; in experiment [1], 2.15 µM; in experiment [2], 0.0039 µM.

As for `COc1cc(Nc2nccc(Oc3ccc(NC(=O)Nc4cc([Si](C)(C)C)nn4-c4ccc(C)cc4)c(Cl)c3Cl)n2)cc(OCCN2CCOCC2)c1` [Example 18, 1-(2,3-Dichloro-4-((2-((3-methoxy-5-(2-morpholinoethoxy)phenyl)amino)pyrimidin-4-yl)oxy)phenyl)-3-(1-(p-tolyl)-3-(trimethylsilyl)-1H-pyrazol-5-yl)urea], the IC50 in experiment [5] was more than 1 µM; in experiment [3] it was 0.041 µM; in experiment [4], 0.059 µM; in experiment [1] it was more than 10 µM; in experiment [2], 0.0027 µM.

Turning to `COc1cc(Nc2nccc(Oc3ccc(NC(=O)Nc4cc([Si](C)(C)C)nn4-c4ccc(C)cc4)c4ccccc34)n2)cc(C(=O)NC[C@H](O)[C@@H](O)[C@H](O)[C@H](O)CO)c1` [Example 19, 3-Methoxy-N-((2S,3R,4R,5R)-2,3,4,5,6-pentahydroxyhexyl)-5-((4-((4-(3-(1-(p-tolyl)-3-(trimethylsilyl)-1H-pyrazol-5-yl)ureido)naphthalen-1-yl)oxy)pyrimidin-2-yl)amino)-benzamide], the IC50 in experiment [1] came out at 6.73 µM; in experiment [2] it was 0.076 µM.

As for `Cc1ccc(-n2nc([Si](C)(C)C)cc2NC(=O)Nc2ccc(Oc3ccnc(Nc4cccc(OCCN(C)C)c4)n3)c3ccccc23)cc1` [Example 11, 1-(4-((2-((3-(2-(Dimethylamino)ethoxy)phenyl)amino)pyrimidin-4-yl)oxy)naphthalen-1-yl)-3-(1-(p-tolyl)-3-(trimethylsilyl)-1H-pyrazol-5-yl)urea], the IC50 worked out at 0.69 µM in experiment [1] and 0.0014 µM in experiment [2].

The values above are taken from US9783556B2, “Kinase inhibitors” (RESPIVERT LIMITED, priority 2012, dated 2017).
